Reference: ChEMBL document CHEMBL1133474, “Role of hydrophobic interactions in binding S-(N-aryl/alkyl-N-hydroxycarbamoyl)glutathiones to the active site of the antitumor target enzyme glyoxalase I” (J Med Chem, 2000)

target: Lactoylglutathione lyase (Homo sapiens, UniProt Q04760); test: Binding affinity for Glyoxalase I
Sequence (Q04760 whole entry): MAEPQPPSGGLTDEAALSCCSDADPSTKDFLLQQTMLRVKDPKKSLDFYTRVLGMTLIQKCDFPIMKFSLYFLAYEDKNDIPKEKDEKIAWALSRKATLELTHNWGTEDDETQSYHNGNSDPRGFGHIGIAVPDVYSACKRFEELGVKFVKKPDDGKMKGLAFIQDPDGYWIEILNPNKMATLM

Compared with `CCCN(O)C(=O)SC[C@H](NC(=O)CC[C@H](N)C(=O)O)C(=O)NCC(=O)O`, `CCCCN(O)C(=O)SC[C@H](NC(=O)CC[C@H](N)C(=O)O)C(=O)NCC(=O)O` is 4.4-fold lower in Ki: 800 nM for the first, 180 nM for the second. The second binds more tightly here.

`CN(O)C(=O)SC[C@H](NC(=O)CC[C@H](N)C(=O)O)C(=O)NCC(=O)O` and `CCN(O)C(=O)SC[C@H](NC(=O)CC[C@H](N)C(=O)O)C(=O)NCC(=O)O` are within 1.5-fold of each other in Ki: 1700 nM for the first, 1180 nM for the second.

`CCCCCCCN(O)C(=O)SC[C@H](NC(=O)CC[C@H](N)C(=O)O)C(=O)NCC(=O)O` and `CCCCCCN(O)C(=O)SC[C@H](NC(=O)CC[C@H](N)C(=O)O)C(=O)NCC(=O)O` are within 1.5-fold of each other in Ki: 18 nM for the first, 16 nM for the second.

Compared with `CCCCCN(O)C(=O)SC[C@H](NC(=O)CC[C@H](N)C(=O)O)C(=O)NCC(=O)O`, `N[C@@H](CCC(=O)N[C@@H](CSC(=O)NO)C(=O)NCC(=O)O)C(=O)O` is 1100-fold higher in Ki: 170 nM for the first, 183000 nM for the second. The first binds more tightly here.
